Tests used:
Cbl-b [1] = target: T1, Cbl-b (Homo sapiens, UniProt Q13191); test: Cbl-b inhibition assay (Cbl-b activity assay, FRET, Biological Example 1; 100 mM NaCl, 60 nM Src kinase); format: biochemical
Procedure, shortened: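 FRET read-out: loss of signal marks inhibition. Mix = biotin-Avi-Cbl-b (N-term), Src kinase, UbcH5B-Ub(Bodipy-FL, irreversible conjugate), streptavidin-Tb, assay buffer.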

T-cell [2] = test: IL-2 secretion from T-cells co-stimulated with anti-CD3 and anti-CD28 antibody (Biological Example 2); format: cell-based, human; conditions: Homo sapiens, T-cell; for fold induction at 4 µM: 4 μM Cbl-b inhibitor
Procedure, shortened: (§1)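 Values are fold-change over baseline: readings (IL-2 release, CD25 staining) from inhibitor-treated T-cells divided against untreated cells […]. No detailed procedure stated.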

T-cell [3] = test: IL-2 secretion from T-cells stimulated with anti-CD3 antibody alone (Biological Example 2); format: cell-based, human; conditions: T-cell; for fold induction at 8 µM: 8 μM Cbl-b inhibitor
T-cell [4] = test: CD25 cell surface staining on T-cells co-stimulated with anti-CD3 and anti-CD28 antibody (Biological Example 2); format: cell-based, human; conditions: Homo sapiens, T-cell; for fold induction at 4 µM: 4 μM Cbl-b inhibitor
Procedure, shortened: as §1

T-cell [5] = test: CD25 cell surface staining on T-cells stimulated with anti-CD3 antibody alone (Biological Example 2); format: cell-based, human; conditions: T-cell; for fold induction at 8 µM: 8 μM Cbl-b inhibitor
Cbl-b [6] = target: T1, Cbl-b; test: Cbl-b activity assay (Cbl-b inhibition assay), TR-FRET of Cbl-b interaction with UbcH5B-Ub; format: biochemical; conditions: assay buffer with 100 mM NaCl, 60 nM Src kinase
Procedure, shortened: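 Compound-treated Cbl-b was incubated 1.5 h with Src kinase (60 nM final; 30 nM for asterisked values, which also used 50 mM instead of 100 mM NaCl), 1 mM ATP and 5 mM MgCl2. Binding to fluorescent Ub-loaded UbcH5B (C85K mutant) was then read by TR-FRET after 1 h more.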

[7] = read-out: IL-2 secretion, Anti-CD3/Anti-CD28 stimulation, fold change over baseline
[8] = Homo sapiens, read-out: IL-2 secretion, Anti-CD3 stimulation, fold change over baseline
[9] = read-out: CD25 staining, Anti-CD3/Anti-CD28 stimulation, fold change over baseline
[10] = Homo sapiens, read-out: CD25 staining, Anti-CD3 stimulation, fold change over baseline
[11] = upper bound stated in text lists, read-out: IC50 values in the Cbl-b inhibition assay of Biological Example 1
[12] = fold change over baseline, 0.3 μM Cbl-b inhibitor, primary human total T-cells, read-out: IL-2 secretion Anti-CD3/Anti-CD28 stimulation
[13] = fold change over baseline, 1 μM Cbl-b inhibitor, primary human total T-cells, read-out: IL-2 secretion Anti-CD3/Anti-CD28 stimulation
[14] = fold change over baseline, primary human total T-cells, read-out: IL-2 secretion Anti-CD3/Anti-CD28 stimulation
[15] = fold change over baseline, 1 μM Cbl-b inhibitor, primary human total T-cells, read-out: IL-2 secretion Anti-CD3 stimulation
[16] = fold change over baseline, primary human total T-cells, read-out: IL-2 secretion Anti-CD3 stimulation
[17] = fold change over baseline, 0.3 μM Cbl-b inhibitor, primary human total T-cells, read-out: CD25 staining Anti-CD3/Anti-CD28 stimulation
[18] = fold change over baseline, 1 μM Cbl-b inhibitor, primary human total T-cells, read-out: CD25 staining Anti-CD3/Anti-CD28 stimulation
[19] = fold change over baseline, primary human total T-cells, read-out: CD25 staining Anti-CD3/Anti-CD28 stimulation
[20] = fold change over baseline, 1 μM Cbl-b inhibitor, primary human total T-cells, read-out: CD25 staining Anti-CD3 stimulation
[21] = fold change over baseline, primary human total T-cells, read-out: CD25 staining Anti-CD3 stimulation
[22] = 0.3 μM Cbl-b inhibitor, fold change over baseline (anti-CD3/anti-CD28 stimulated T-cells without inhibitor), read-out: IL-2 secretion Anti-CD3/Anti-CD28 stimulation
[23] = 1 μM Cbl-b inhibitor, fold change over baseline (anti-CD3/anti-CD28 stimulated T-cells without inhibitor), read-out: IL-2 secretion Anti-CD3/Anti-CD28 stimulation
[24] = Homo sapiens, 1 μM Cbl-b inhibitor, fold change over baseline (anti-CD3/anti-CD28 stimulated T-cells without inhibitor), read-out: IL-2 secretion Anti-CD3 stimulation
[25] = 0.3 μM Cbl-b inhibitor, fold change over baseline (anti-CD3/anti-CD28 stimulated T-cells without inhibitor), read-out: CD25 staining Anti-CD3/Anti-CD28 stimulation
[26] = 1 μM Cbl-b inhibitor, fold change over baseline (anti-CD3/anti-CD28 stimulated T-cells without inhibitor), read-out: CD25 staining Anti-CD3/Anti-CD28 stimulation
[27] = Homo sapiens, 1 μM Cbl-b inhibitor, fold change over baseline (anti-CD3/anti-CD28 stimulated T-cells without inhibitor), read-out: CD25 staining Anti-CD3 stimulation

T1 sequence (Q13191 36-427): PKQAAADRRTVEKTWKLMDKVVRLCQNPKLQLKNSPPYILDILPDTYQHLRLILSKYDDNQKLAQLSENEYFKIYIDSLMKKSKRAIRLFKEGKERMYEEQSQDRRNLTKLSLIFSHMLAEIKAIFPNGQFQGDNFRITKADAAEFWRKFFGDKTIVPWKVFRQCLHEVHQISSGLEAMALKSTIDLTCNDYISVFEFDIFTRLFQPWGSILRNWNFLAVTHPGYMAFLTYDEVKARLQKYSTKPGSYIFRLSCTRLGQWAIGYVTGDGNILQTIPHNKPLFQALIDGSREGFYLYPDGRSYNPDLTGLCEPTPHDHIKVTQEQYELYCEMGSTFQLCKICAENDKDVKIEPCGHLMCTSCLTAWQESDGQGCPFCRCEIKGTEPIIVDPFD

Cn1cnnc1CC1(c2cccc(NC(=O)c3nc(C(F)(F)F)cs3)c2)COC1 [Compound 495, N-(3-{3-[(4-methyl-1,2,4-triazol-3-yl)methyl]oxetan-3-yl}phenyl)-4-(trifluoromethyl)-1,3-thiazole-2-carboxamide]
IC50 (Cbl-b [1]; IC50 values in the Cbl-b inhibition assay of Biological Example 1): ≤ 1000 nM | fold induction at 0.3 µM (T-cell [2]; [7]): 1.01 to 2.5 | fold induction at 1 µM (T-cell [2]; [7]): 2.51 to 5 | fold induction at 1 µM (T-cell [3]; [8]): < 0.05 | fold induction at 0.3 µM (T-cell [4]; [9]): 1.01 to 1.3 | fold induction at 1 µM (T-cell [4]; [9]): 1.01 to 1.3 | fold induction at 1 µM (T-cell [5]; [10]): 0.601 to 0.8 | IC50 (Cbl-b [6]; Cbl-b activity IC50 (μM)): 0.301 to 1 µM

Cn1cnnc1CC1(c2cccc(N3Cc4c(cc(CN5C6CCC5CC6)cc4C(F)(F)F)C3=O)c2)COC1 [Example 555, 6-((7-azabicyclo[2.2.1]heptan-7-yl)methyl)-2-(3-(3-((4-methyl-4H-1,2,4-triazol-3-yl)methyl)oxetan-3-yl)phenyl)-4-(trifluoromethyl)isoindolin-1-one]
IC50 (Cbl-b [1]; [11]): ≤ 100 nM | fold induction at 0.3 µM (T-cell [2]; [7]): > 7.5 | fold induction at 1 µM (T-cell [2]; [7]): > 7.5 | fold induction at 1 µM (T-cell [3]; [8]): > 0.201 | fold induction at 0.3 µM (T-cell [4]; [9]): 1.51 to 1.75 | fold induction at 1 µM (T-cell [4]; [9]): 1.51 to 1.75 | fold induction at 1 µM (T-cell [5]; [10]): > 1 | IC50 (Cbl-b [6]; read-out: Cbl-b activity IC50): < 0.1 µM

Cc1c[nH]nc1C[C@H](C)c1cccc(N2Cc3c(cccc3C(F)(F)F)C2=O)c1 (single isomer, unassigned) [Compound 270a]
IC50 (Cbl-b [1]; [11]): ≤ 1000 nM | fold induction at 0.3 µM (T-cell [2]; [12]): 1.01 to 2.5 | fold induction at 1 µM (T-cell [2]; [13]): 1.01 to 2.5 | fold induction at 4 µM (T-cell [2]; [14]): 1.01 to 2.5 | fold induction at 1 µM (T-cell [3]; [15]): 0.101 to 0.15 | fold induction at 8 µM (T-cell [3]; [16]): 0.151 to 0.2 | fold induction at 0.3 µM (T-cell [4]; [17]): 1.01 to 1.3 | fold induction at 1 µM (T-cell [4]; [18]): 1.01 to 1.3 | fold induction at 4 µM (T-cell [4]; [19]): 1.01 to 1.3 | fold induction at 1 µM (T-cell [5]; [20]): 0.601 to 0.8 | fold induction at 8 µM (T-cell [5]; [21]): 0.801 to 1 | IC50 (Cbl-b [6]; read-out: Cbl-b activity IC50): 0.301 to 1 µM

Cc1conc1CC(C)c1cccc(N2Cc3c(cccc3C(F)(F)F)C2=O)c1 (stereo not shown) [Compound 268, 2-(3-(1-(4-methylisoxazol-3-yl)propan-2-yl)phenyl)-4-(trifluoromethyl)isoindolin-1-one]
IC50 (Cbl-b [1]; [11]): ≤ 500 nM | fold induction at 0.3 µM (T-cell [2]; [12]): 1.01 to 2.5 | fold induction at 1 µM (T-cell [2]; [13]): 1.01 to 2.5 | fold induction at 4 µM (T-cell [2]; [14]): 1.01 to 2.5 | fold induction at 1 µM (T-cell [3]; [15]): < 0.05 | fold induction at 8 µM (T-cell [3]; [16]): 0.051 to 0.1 | fold induction at 0.3 µM (T-cell [4]; [17]): 1.01 to 1.3 | fold induction at 1 µM (T-cell [4]; [18]): 1.01 to 1.3 | fold induction at 4 µM (T-cell [4]; [19]): 1.01 to 1.3 | fold induction at 1 µM (T-cell [5]; [20]): 0.601 to 0.8 | fold induction at 8 µM (T-cell [5]; [21]): 0.801 to 1 | IC50 (Cbl-b [6]; read-out: Cbl-b activity IC50): 0.301 to 1 µM

Cn1cnnc1CC1(c2cccc(N3Cc4c(cc(CN5CC[C@H](c6ccccc6)C5)cc4C(F)(F)F)C3=O)c2)COC1 [Example 662a, (R)-2-(3-(3-((4-methyl-4H-1,2,4-triazol-3-yl)methyl)oxetan-3-yl)phenyl)-6-((3-phenylpyrrolidin-1-yl)methyl)-4-(trifluoromethyl)isoindolin-1-one]
IC50 (Cbl-b [1]; [11]): ≤ 100 nM | fold induction at 0.3 µM (T-cell [2]; [22]): 5 to 7.5 | fold induction at 1 µM (T-cell [2]; [23]): > 7.5 | fold induction at 1 µM (T-cell [3]; [24]): > 0.201 | fold induction at 0.3 µM (T-cell [4]; [25]): 1.01 to 1.3 | fold induction at 1 µM (T-cell [4]; [26]): 1.01 to 1.3 | fold induction at 1 µM (T-cell [5]; [27]): 0.801 to 1 | IC50 (Cbl-b [6]; read-out: Cbl-b activity IC50): < 0.1 µM

CCOc1cc(N2Cc3c(cc([C@@H](C)N4CC[C@H](F)C4)cc3C(F)(F)F)C2=O)cc(C2(Cc3nncn3C)COC2)c1 [Example 691a, 2-(3-ethoxy-5-(3-((4-methyl-4H-1,2,4-triazol-3-yl)methyl)-oxetan-3-yl)phenyl)-6-((R)-1-((S)-3-fluoropyrrolidin-1-yl)ethyl)-4-(trifluoromethyl)-isoindolin-1-one]
IC50 (Cbl-b [1]; [11]): ≤ 100 nM | fold induction at 0.3 µM (T-cell [2]; [22]): > 7.5 | fold induction at 1 µM (T-cell [2]; [23]): > 7.5 | fold induction at 1 µM (T-cell [3]; [24]): > 0.201 | fold induction at 0.3 µM (T-cell [4]; [25]): 1.31 to 1.5 | fold induction at 1 µM (T-cell [4]; [26]): 1.51 to 1.75 | fold induction at 1 µM (T-cell [5]; [27]): > 1 | IC50 (Cbl-b [6]; read-out: Cbl-b activity IC50): < 0.1 µM

CN1CCN(c2cc(C(=O)Nc3cccc(C4(Cc5nncn5C)COC4)c3)nc(C3CC3)n2)CC1 [Compound 348, 2-Cyclopropyl-N-(3-(3-((4-methyl-4H-1,2,4-triazol-3-yl)methyl)oxetan-3-yl)phenyl)-6-(4-methylpiperazin-1-yl)pyrimidine-4-carboxamide]
IC50 (Cbl-b [1]; [11]): ≤ 100 nM | fold induction at 0.3 µM (T-cell [2]; [12]): 2.51 to 5 | fold induction at 1 µM (T-cell [2]; [13]): > 7.5 | fold induction at 1 µM (T-cell [3]; [15]): > 0.201 | fold induction at 0.3 µM (T-cell [4]; [17]): 1.31 to 1.5 | fold induction at 1 µM (T-cell [4]; [18]): 1.31 to 1.5 | fold induction at 1 µM (T-cell [5]; [20]): 0.801 to 1 | IC50 (Cbl-b [6]; read-out: Cbl-b activity IC50): < 0.1 µM

Source: patent US20220324835A1 (Nurix Therapeutics, Inc., priority 2018, published 2022)
